Tests used:
[1] = molecular target: T1, ABCB1 transporter (Homo sapiens, UniProt P08183); assay: ATPase stimulation assay (ABCB1 expressed in High Five insect cells); supported by [3H]-paclitaxel accumulation and efflux in SW620/Ad300 cells; assay type: biochemical
[2] = molecular target: T2, ABCG2 transporter (Homo sapiens, UniProt Q9UNQ0); assay: ATPase stimulation assay (ABCG2 expressed in High Five insect cells); supported by [3H]-mitoxantrone accumulation and efflux in S1-M1-80 cells; assay type: biochemical
T2 sequence (Q9UNQ0 1-655): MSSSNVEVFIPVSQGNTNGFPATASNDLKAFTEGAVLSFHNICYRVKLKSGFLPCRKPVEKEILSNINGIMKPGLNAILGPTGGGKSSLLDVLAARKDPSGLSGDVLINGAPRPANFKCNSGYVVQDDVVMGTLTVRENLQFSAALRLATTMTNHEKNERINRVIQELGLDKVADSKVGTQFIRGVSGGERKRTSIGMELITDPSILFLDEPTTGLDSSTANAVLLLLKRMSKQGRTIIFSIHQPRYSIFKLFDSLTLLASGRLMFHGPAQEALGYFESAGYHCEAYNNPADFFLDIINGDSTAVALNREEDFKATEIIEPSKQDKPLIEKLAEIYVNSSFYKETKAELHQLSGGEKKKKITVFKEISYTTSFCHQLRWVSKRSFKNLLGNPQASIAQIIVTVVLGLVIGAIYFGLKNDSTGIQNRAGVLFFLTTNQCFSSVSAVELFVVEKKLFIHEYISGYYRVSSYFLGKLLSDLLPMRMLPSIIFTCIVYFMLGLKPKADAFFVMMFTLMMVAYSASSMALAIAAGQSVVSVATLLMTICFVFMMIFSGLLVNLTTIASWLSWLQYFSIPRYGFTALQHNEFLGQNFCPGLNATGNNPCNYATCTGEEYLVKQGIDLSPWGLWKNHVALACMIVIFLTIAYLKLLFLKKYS

[3] = molecular target: T1, ABCB1 transporter

T1 sequence (P08183 whole entry): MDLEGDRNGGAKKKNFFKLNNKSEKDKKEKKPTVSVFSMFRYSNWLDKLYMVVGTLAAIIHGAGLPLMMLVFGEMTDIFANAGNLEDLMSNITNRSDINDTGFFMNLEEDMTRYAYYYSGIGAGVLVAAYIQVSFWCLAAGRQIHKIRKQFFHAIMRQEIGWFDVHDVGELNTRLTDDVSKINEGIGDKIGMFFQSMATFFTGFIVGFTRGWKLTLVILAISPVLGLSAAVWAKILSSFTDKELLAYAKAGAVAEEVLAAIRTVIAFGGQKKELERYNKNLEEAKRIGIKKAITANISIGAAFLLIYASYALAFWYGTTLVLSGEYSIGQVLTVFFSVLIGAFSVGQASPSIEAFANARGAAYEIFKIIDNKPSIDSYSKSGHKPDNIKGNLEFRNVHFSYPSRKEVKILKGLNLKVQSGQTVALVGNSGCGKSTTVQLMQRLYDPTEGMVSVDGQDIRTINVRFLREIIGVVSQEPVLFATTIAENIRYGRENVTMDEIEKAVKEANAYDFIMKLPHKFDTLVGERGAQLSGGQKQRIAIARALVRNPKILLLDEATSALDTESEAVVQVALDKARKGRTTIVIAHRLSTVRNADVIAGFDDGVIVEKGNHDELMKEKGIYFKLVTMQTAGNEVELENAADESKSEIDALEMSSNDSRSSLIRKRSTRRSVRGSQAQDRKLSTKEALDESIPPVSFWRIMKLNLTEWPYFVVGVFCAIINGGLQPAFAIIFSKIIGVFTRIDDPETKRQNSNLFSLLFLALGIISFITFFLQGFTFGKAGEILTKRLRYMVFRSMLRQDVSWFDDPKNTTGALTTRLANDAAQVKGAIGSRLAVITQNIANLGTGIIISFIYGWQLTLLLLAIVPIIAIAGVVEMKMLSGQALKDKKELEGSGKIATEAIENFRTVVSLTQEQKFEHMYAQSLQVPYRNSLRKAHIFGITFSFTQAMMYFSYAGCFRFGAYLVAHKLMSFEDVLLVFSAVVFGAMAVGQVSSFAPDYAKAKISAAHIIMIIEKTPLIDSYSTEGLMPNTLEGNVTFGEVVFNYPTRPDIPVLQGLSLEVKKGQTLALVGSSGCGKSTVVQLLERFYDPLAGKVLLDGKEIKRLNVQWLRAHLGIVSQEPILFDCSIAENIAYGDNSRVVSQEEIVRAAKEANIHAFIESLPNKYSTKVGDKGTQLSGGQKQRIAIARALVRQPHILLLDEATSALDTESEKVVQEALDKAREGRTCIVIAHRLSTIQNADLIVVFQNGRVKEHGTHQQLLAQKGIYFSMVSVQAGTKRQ

SMILES	EC50 [1] [nM]	EC50 [2] [nM]	radiolabelled substrate accumulation and efflux in SW620/Ad300 vs SW620 cells [3]
C=CC(=O)N1CCC(Oc2cc3c(Nc4ccc(Cl)c(Cl)c4F)ncnc3cc2OC)CC1 [poziotinib]	20	210	–
CC(=O)O[C@H]1C(=O)[C@@]2(C)[C@H]([C@H](OC(=O)c3ccccc3)[C@]3(O)C[C@H](OC(=O)[C@H](O)[C@@H](NC(=O)c4ccccc4)c4ccccc4)C(C)=C1C3(C)C)[C@]1(OC(C)=O)CO[C@@H]1C[C@@H]2O [paclitaxel]	–	–	overexpression of the ABCB1 transporter increases the efflux of the substrate, [^3H]-paclitaxel
